Assay results from patent US9321735B2, “Insecticidal triazines and pyrimidines” (Vestaron Corporation, priority 2010, dated 2016).

System: beet army worm (Spodoptera exigua)
Test: Insecticidal test for beet armyworm (diet surface treatment, larval mortality)
Type: in vivo
Conditions: 100 μg/cm^2 on diet surface; first instar larvae, 32 insects per treatment; observations 24, 48 and 96 hours after treatment
Procedure: The compounds identified in Table 8 were prepared according to the previous methods and were tested against beet armyworm and corn earworm as follows:
Insecticidal Test for Beet Armyworm (Spodoptera Exigua).
To prepare the test solution, the test compound was Formulated at 3499 ppm in solution as 5 mg compound/1.429 mL of 9 parts acetone: 1 part deionized H2O and vortexed to homogenize. 50 μL of the 3499 ppm (equivalent to 100 μg/cm^2 dose on diet surface area) test solution was pipetted upon the surface of 1 mL of solidified cool Southland Products Incorporated Beet Armyworm Diet (201 Stuart Island Road Lake Village, Ark. 71653) using an Eppendorf Repeater Plus with a 1 mL pipette tip. All pipetting of treatments was done in a Labconco Hood. Thirty minutes were allowed for the acetone to evaporate leaving a dose of 100 μg/cm^2 on the surface of the artificial diet. Two 24 hour old first instar Beet Armyworm(Spodoptera Exigua) larvae were placed in each well of the 128 well Bio-BA 128 Bioassay trays (CD International, Pitman, N.J., 08071, USA) using a #0 fine camel hair paint brush. Bioassay trays were sectioned into treatment groups of 8 with 16 replicates per treatment group (32 insects per treatment). […] The number of insects dead were counted out of the 32 insects total per treatment and the results are given in a table as a percent mortality at a dose of 100 μg/cm^2. […]

SMILES: Fc1cccc(Cl)c1-c1nc(NN=Cc2ccc(C(F)(F)F)cc2)nc(Nc2ccc(Cl)nc2)n1 [Example 51, 4-(2-chloro-6-fluorophenyl)-N-(6-chloropyridin-3-yl)-6-(2-(4-(trifluoromethyl)benzylidene)hydrazinyl)-1,3,5-triazin-2-amine]
- Mortality: A (A=76-100% mortality)
